Laboratory results as given in patent publication US8628753B2, “Reduced dye probes for the detection of radical oxygen species” (Emory University, priority 2008, dated 2014).

What was measured:
[1] = Fluorescence of hydrocyanines before and after reaction with superoxide (KO2); type: physicochemical; details: for λem: emission wavelength of the corresponding oxidized product; for λex: excitation wavelength of the corresponding oxidized product; for Fold Increase in Intensity: oxidized versus reduced dye, 7.5 μM in 1 mL methanol, oxidized with 20 μL DMSO containing 20 mM KO2
Experimental: Superoxide (O2^−) was created by the enzymatic reaction of XA/XO (10 lm/10 mU) at 25° C. for 5 min (XA=[…]). XA/XO (10 lm/10 mU) was added to buffered solutions of Hydro-Cy3 ([…]) maintained in a 37° C. water bath. The fluorescence emission of each reaction mixture was measured at 5-min intervals against a reagent blank using a fluorescence spectrometer. In some cases solid KO2 (1 mg) or KO2 dissolved in DMSO was added to a Hydro-IR-786 solution in methanol or DMSO and the emission spectra was recorded. Alternatively, hydro-IR-786 (2 mg) was dissolved in 1 mL of ethanol and 50 μL of […] KO2 solution (7 mg KO2 was dissolved in 10 mL dimethylsulfoxide) was added and stirred for 15 min before recording the emission spectra.

[2] = Stability of reduced dyes to autooxidation; details: for half-life: buffer, pH 7.4
Experimental: A solution of hydrocyanine in PBS buffer (pH 7.4) was placed in an Eppendorf tube and placed in a 37° C. water bath. Stability was measured by monitoring the formation of the oxidation product using fluorescence spectroscopy over a 24 hour period. The excitation and emission wavelengths for DHE were 515 and 590 nm.
The stability of deuterocyanines was evaluated in the same manner.

[3] = test system: rat aortic smooth muscle (RASM) cells; test: Detection of ROS in RASM cells during Ang II mediated cell signaling; type: cell-based; details: for background fluorescence / detection of intracellular ROS after Ang II stimulation: 10 minutes; for detection of intracellular ROS after Ang II stimulation: fluorescent microscopy
Experimental: The ability of hydrocyanines to detect ROS in rat aortic muscle (RASM) cells during angiotensin (Ang) II mediated cell signaling was evaluated using fluorescence spectroscopy. Ang II-mediated ROS production in aortic smooth muscle cells has been implicated in the development of atherosclerosis and hypertension.
[…] […] It is evident from fluorescence measurements that hydro-Cy3 is sensitive enough to detect even the ROS production by normal cells, causing relatively higher background fluorescence. On the other hand, because of the tuned reaction rate, deutero-Cy3 can only detect the overproduction of ROS during Ang-II mediated ROS over-production.
The ability of D-DHE to detect ROS in rat aortic muscle (RASM) cells during angiotensin (Ang) II mediated cell signaling was evaluated using fluorescence spectroscopy. A comparative cell-culture study between DHE and D-DHE was conducted to evaluate the ability of DHE and D-DHE to detect ROS production in rat aortic smooth muscle (RASM) cells, during angiotensin (Ang) II mediated cell signaling.
[…] […] Stimulation of RASMs with Ang II was not detected with DHE due to the high level background fluorescence.

[4] = test system: live, explanted mouse aortas; test: Detection of ROS in live, explanted mouse aortas after LPS stimulation; parameters: species or system C57B1/6 mice; details: for detection of ROS in tissue explants (LPS versus PBS): confocal fluorescent imaging
Experimental: The ability of hydrocyanines to detect ROS from live, explanted mouse aortas, after lipopolysaccharide endotoxin (LPS) stimulation to produce ROS, was evaluated. The detection of ROS in live tissue can provide information about ROS production in a physiological environment that closely resembles in vivo conditions. C57B1/6 mice were treated with either 16 mg/kg lipopolysaccharide endotoxin (LPS) or PBS for 16 hours and then euthanized. The aortas of the mice were isolated and incubated with either Hydro-Cy3 or Hydro-Cy3+TEMPOL for 15 minutes. Sections of the aorta were made, fixed with 10% formalin, and mounted en face.
For example, the fluorescence intensity of the LPS-treated slide was 183.2 RFU/S compared to 46.9 RFU/S in the PBS-treated mice. Application of TEMPOL (small molecule cell-permeable superoxide dismutase mimetic1, which attenuates superoxide anion and peroxynitrite-induced inflammation) to mouse aortas, treated with LPS, reduced the fluorescence to control levels.

carotid arteries = test: DHE staining of carotid artery sections after carotid ligation; parameters: species or system Mice; details: 10 μmol/L in PBS, 30 minutes at 37° C.; 14 days after ligation
Experimental: Mice were anesthetized with ketamine/xylazine and their left carotid arteries were exposed and tied with a 6-0 silk suture 1 cm below the bifurcation as described in the literature. The control was sham operated mice. The mice were sacrificed 14 days after ligation and their carotid arteries were isolated and frozen, enzymatically-intact, and 30 μm-thick sections of sham operated and injured carotid arteries were made. The frozen sections were incuvated with DHE (10 μmol/L) in PBS for 30 minutes at 37° C. in a humidified chamber protected form light. DHE is oxidized on reaction with superoxide to ethidium bromide, which binds to DNA in the nucleus and fluoresces red. The DHE stained slides were imaged on a confocal microscope. The ethidium bromide fluorescence was detected using a 543 nm He—Ne laser for excitation and a 560 nm long pass filter for emission. The autofluorescence of the elastic laminae was detected using a 488 nm Ar laser for excitation combined with a 500-550 nm band pass filter for emission.

[5] = Sensitivity to hydroxide radical generated from H2O2 and Fe2+
Experimental: Hydroxide radicals were generated in situ by reacting hydrogen peroxide with Fe^2+. Various quantities of hydrogen peroxide (H2O2) stock solutions were added to a solution of hydrocyanine in methanol to generate hydrogen peroxide concentrations from about 2 to about 30 nM. Aqueous Fe^2+(1 μM) was added to the reduced dye/H2O2 solution to generate a 200 nM concentration. The resulting solution was kept at ambient temperature for 5 minutes and the fluorescence intensity was measured (λex/λem) against a reagent blank (control solution containing only reagent) simultaneously.
This measurement was carried out using 100 μM of Hydro-ICG at 25° C. The hydroxide radical was generated using the procedure described above.

RASM cells = test: Trypan blue cell viability assay; type: cell-based, rat; details: experimental conditions of RASM assay and higher concentrations (1 mM)
[6] = Specificity to various reactive oxygen species; details: 50 μM probe in PBS with 1% methanol; equimolar ROS; 5 minutes at 25° C.; FIG. 5
Experimental: A 50 μm Hydro-Cy7 solution was prepared in phosphate buffered saline (PBS) containing 1% methanol. Various reactive oxygen species were added to the 50 μm Hydro-Cy7 solution, at an equimolar ratio to Hydro-Cy7, and the fluorescence intensity was recorded after incubating 5 minutes at 25° C. Superoxide (O2^−) was added as solid KO2. Stock solutions of hydrogen peroxide, t-butyl hydrogen peroxide (TBHP), hypochlorite, 3-morpholinosydnonimine (SIN-1), glutathione (GSH), and 1,4-hydroquinone were prepared and added to the Hydro-Cy7 solution to generate a final concentration of 50 μM. 3-(aminopropyl)-1-hydroxy-3-isopropyl-2-oxo-1-triazene (NOC-5, 1 mM) was prepared as a 10 mM sodium hydroxide solution and added to the Hydro-Cy7 solution to generate a final concentration of 50 μM. The hydroxide and butoxy radicals were generated in situ by reacting hydrogen peroxide and t-butylperoxide with Fe^2+. A 50 μM Hydro-Cy7 solution, in PBS, containing 500 μM Fe^2+ was prepared and either hydrogen peroxide or t-butyl hydrogen peroxide was added to this solution to generate a final concentration of 50 μM.

[7] = test system: ROS production generated by activated macrophages and neutrophils; test: In vivo imaging of ROS in LPS model of acute inflammation; parameters: species or system C57B1/6 mice; details: 5 nanomoles i.p., 6 hours after LPS (1 mg i.p.); abdominal area; FIG. 7
Experimental: The ability of hydrocyanines to image ROS production, in vivo, generated by activated macrophages and neutrophils, in an LPS model of acute inflammation was evaluated. Nine C57B1/6 mice were divided into three groups: Group I was given an intraperitoneal (i.p.) injection of LPS (1 mg in 400 μL saline); Group II was given saline (400 μL); and Group III was untreated. After 6 hours, the mice were anaesthetized, their abdominal fur was removed, and the LPS and saline treated mice were injected i.p. with Hydro-Cy7 (5 nanomoles in 50 μL methanol). The mice were images as triplets, one from each group, using a Kodak FX in vivo images with a 700 nm excitation laser and a 790 nm emission filter. […] The mean fluorescent intensity, from the abdominal area, from the three sets of mice was also quantified using Image-Pro software. LPS-treated mice had approximately two-fold higher fluorescence intensity than the saline group.

[8] = Sensitivity of DHE and D-DHE to Fenton's reagent in PBS; details: 50 μM probe in PBS; FIG. 4
Experimental: The sensitivity of deuterohydroethydium (D-DHE or DDE) was evaluated in the same manner. A 50 μM solution of DHE or D-DHE (DDE) in PBS buffer was treated with Fenton's reagent (using 1-60 nM H2O2 with Fe^2+) and the fluorescence of the oxidized product was measured.

SMILES | λem [1] | λex [1] | Fold Increase in Intensity [1] | half-life [2] | background fluorescence ([3]; probe 10 μM) | detection of intracellular ROS after Ang II stimulation ([3]; probe 10 μM) | detection of ROS (fluorescence) in cells incubated with Ang II ([3]; probe 100 μM) | detection of ROS in tissue explants (LPS versus PBS) [4] | other results
CN1/C(=C/C=C/C=C/C2N(C)c3ccc4ccccc4c3C2(C)C)C(C)(C)c2c1ccc1ccccc21 (centres unmarked) [Hydro-IR-676] | 693 nm | 675 nm | 100 fold |  |  |  |  |  | 
CCN1c2cc(N)ccc2-c2ccc(N)cc2C1c1ccccc1 (centres unmarked) [DHE, dihydroethydium, reference compound] | 590 nm | 515 nm |  | 0.5 h | large amount of background fluorescence | not detected | failed to detect ROS | failed to detect ROS | ROS detection in ligated versus sham carotid artery sections (carotid arteries): increased red fluorescence compared to the sham mice
CCN1/C(=C/C=C/C2N(CC)c3ccccc3C2(C)C)C(C)(C)c2ccccc21 (centres unmarked) [Hydro-Cy3] | 560 nm | 535 nm | 118 fold | ~72 h |  |  | intense intracellular fluorescence | significantly higher fluorescence intensity | concentration range of linear concentration curve against hydroxide radical [5]: 5 to 50 nM; detected concentration of hydroxide radical [5]: 5 nM; change in fluorescence on application of TEMPOL ([3]; cells treated with probe (100 μM) and Ang II): dramatic decrease in fluorescence; background fluorescence ([3]; probe 50 μM): relatively higher amounts of background fluorescence; fluorescence of cells incubated with probe alone ([3]; probe 100 μM, no Ang II): significantly less fluorescence; cellular toxicity (RASM cells): no cellular toxicity; integrated total fluorescence intensity ([4]; aortas of LPS-treated mice (16 mg/kg, 16 hours), probe 15 minutes): 183.2 RFU/S; integrated total fluorescence intensity ([4]; aortas of LPS-treated mice, probe + TEMPOL): 34.9 RFU/S; integrated total fluorescence intensity ([4]; aortas of PBS-treated mice): 46.9 RFU/S
CCN1/C(=C/C=C/C=C/C=C/C2N(CC)c3ccccc3C2(C)C)C(C)(C)c2ccccc21 (centres unmarked) [Hydro-Cy7] | 760 nm | 735 nm | 104 fold | ~72 h |  |  |  |  | ROS specificity [6]: specificity for superoxide and hydroxyl radical; fluorescence intensity of LPS-treated mice relative to saline group [7]: approximately two-fold
[2H]C1(c2ccccc2)c2cc(N)ccc2-c2ccc(N)cc2N1CC [D-DHE, deuterohydroethydium] |  |  |  |  | very low levels of background fluorescence | significant increase in fluorescence |  |  | concentration range in which ROS is accurately measured [8]: 5 to 60 nM; increase in stability versus DHE [2]: 4-6 fold; change in fluorescence on application of TEMPOL ([3]; cells treated with probe (10 μM) and Ang II): dramatic decrease in fluorescence; detection of intracellular ROS after Ang II stimulation ([3]; probe 10 μM, listed as DDE): significantly better than DHE
